Data set [1] is described as follows: Rejection experiments with NF90 membranes (no biofilm). The note with it: 1 mM and 10 mM feed in 5 mM NaCl (pH 9.0), 30 min. It is filed as physicochemical. As for the experimental part: Beneficial Biofilm Degrades Epichlorohydrin. Epichlorohydrin is an emerging water contaminant for which treatment techniques are not well studied. […] Measurements were taken 30 min after permeation began. Feed was in 5 mM NaCl (pH 9.0). Furthermore, when grown on the NF90 membrane, the beneficial biofilm that produces EH degraded epichlorohydrin by more than 39±4% in single pass batch filtration (See FIGS. 29 and 30). […] Biofilms grown for 24 h on NF90 membranes were challenged with 10 mM epichlorohydrin in 5 mM NaCl feed solution (pH 9). The left and adjacent right bars indicate the molar removal of epichlorohydrin (%) at 20 min and 30 min respectively, after starting filtration. The removal of epichlorohydrin by adsorption to cellular biomass was estimated using a dead cell control experiment. EH− is E. coli TG1/pBdcAE50Q-lasI-lasR/pBNos and EH+ is E. coli TG1/pBdcAE50Q-lasI-lasR/pBNos-echA. Dead cells were obtained by autoclaving overnight cultures of the EH+ strain. The error bars are standard deviation for three independent colonies.

The test system of data set [2] is biofilm dispersal. The following applies: cited from earlier work.

Turning to `ClCC1CO1` (centres unmarked) [Epichlorohydrin], the “passage through NF90 membrane” value in data set [1] is “passes through the membrane used”.

B1: BdcA E50Q variant (protein, UniProt P39333 1-237, looked up, variant E50Q)
Cyclic-di-GMP-binding biofilm …: MGAFTGKTVLILGGSRGIGAAIVRRFVTDGANVRFTYAGSKDAAKRLAQQTGATAVFTDSADRDAVIDVVRKSGALDILVVNAGIGVFGEALELNADDIDRLFKINIHAPYHASVEAARQMPEGGRILIIGSVNGDRMPVAGMAAYAASKSALQGMARGLARDFGPRGITINVVQPGPIDTDANPANGPMRDMLHSLMAIKRHGQPEEVAGMVAWLAGPEASFVTGAMHTIDGAFGA
Turning to B1, the “higher levels of biofilm dispersal” value in data set [2] is recorded as “six-fold higher”.

These data come from patent publication US10172362B2, “Biofilms, components and methods of use to reduce biofouling and contamination” (THE PENN STATE RESEARCH FOUNDATION, priority 2015, dated 2019).
